Laboratory results from patent US9907838B2, “Composition and methods for treating ischemic damage” (GEMVAX & KAEL CO., LTD., priority 2013, dated 2018).

Experiments:
[1] = tested on: renal ischemic-reperfusion injury mouse model; assay: Inflammatory cytokine levels (IL-6, MCP-1, TNF-α) in renal tissue, renal ischemic-reperfusion injury mouse model; format: in vivo, C57BL/6 mouse; conditions: protein extracted from renal tissue 24 hours after ischemic reperfusion; 1000 nmol/kg twice; compared to PBS control group
Procedure: (§1) A renal ischemic-reperfusion injury mouse model was established by inducing ischemic reperfusion by bilaterally clamping renal pedicles for 30 minutes and restoring blood flow 30 minutes later by removing the clamps. Test groups were divided into an administered group (PEP 1), a control group (PBS without PEP 1), and a sham group (no bilateral clamping). PEP 1 was […] injected at a concentration of 1000 nmol/kg 30 minutes before and 12 hours after the induction of ischemic reperfusion.
(§2) C57BL/6 mouse (8 weeks old; Charles River Laboratories, Wilmington, Mass.) was used to induce renal ischemic-reperfusion injury. After blocking blood flow by clamping the renal pedicles with vascular forceps and inducing ischemia for […], reperfusion was performed.
(§3) The peptide PEP 1 was diluted in PBS to a concentration of 1000 nmol/kg and intraperitoneally (i.p.) injected twice 30 minutes before and 12 hours after the ischemic reperfusion. The test was conducted for the administered group (PEP 1), the control group (PBS), and the sham group (no ischemic reperfusion).
(§4) Blood was taken 24 hours after the ischemic reperfusion and the levels of blood urea nitrogen (BUN) and creatine as renal toxicity markers were measured. Renal tissue was taken and prepared into paraffin blocks for immunohistochemical and histological studies. Then, proteins were extracted and the levels of cytokines were measured. The concentrations of creatine and BUN were measured using an autoanalyzer (Technicon RA-1000; Bayer, Tarrytown, N.Y.).
Protein was extracted from renal tissue 24 hours after the ischemic reperfusion and the levels of IL-6, MCP-1 and TNF-α were measured according to the cytometric bead array method. Mouse IL-6, MCP-1, TNF-α ELISA kits were purchased from R&D Systems and the test was conducted according to the manufacturer's protocol.

[2] = tested on: renal ischemic-reperfusion injury mouse model; assay: Renal apoptosis by TUNEL staining in renal ischemic-reperfusion injury mouse model; format: in vivo, C57BL/6 mouse; conditions: 24 hours after ischemic reperfusion; 1000 nmol/kg 30 minutes before and 12 hours after IR; compared to PBS control group
Procedure: as §1, §2, §3
Renal apoptosis was evaluated by staining renal tissue with TUNEL stain 24 hours after the ischemic reperfusion. Renal paraffin sections were stained with TUNEL using a TUNEL staining kit (Roche Applied Science, Indianapolis, Ind., USA).

[3] = tested on: renal ischemic-reperfusion injury mouse model; assay: Renal tissue injury scoring after PAS staining in renal ischemic-reperfusion injury mouse model; format: in vivo, C57BL/6 mouse; conditions: 24 hours after ischemic reperfusion; 1000 nmol/kg 30 minutes before and 12 hours after IR; compared to PBS control group
Procedure: as §1, §2, §3
Renal tissue was stained with periodic acid-Schiff (PAS) stain according to the protocol of the manufacturer (Polysciences, Inc., Warrington, Pa., USA) 24 hours after the ischemic reperfusion. After the staining, renal tissue injury was evaluated through renal tissue injury scoring.

[4] = tested on: rat model of ischemic-reperfusion injury (abdominal skin flaps); assay: Flap survivability in rat skin flap model of ischemic-reperfusion injury; format: in vivo, Sprague-Dawley rats; conditions: 7 days after induction of ischemic reperfusion; 10 mg/500 μL intramuscularly 30 minutes before and 1, 2, 3, 4, 5 and 7 days after; PBS-treated group 34.69%±16.44%; p<0.05
Procedure: A rat model of ischemic-reperfusion injury was established by acquiring 5 cm×5 cm skin flaps from the abdomen of Sprague-Dawley rats (weighing 180-230 g), administering PEP1 or saline, inducing local ischemia through clamping and then restoring blood flow 7 hours later by removing the clamps (see FIG. 11).
Test groups were divided into an administered group (PEP 1), a control group (PBS without PEP 1), and a sham group (no ischemic-reperfusion injury induced). PEP 1 (10 mg/500 μL) or PBS (500 μL) was intramuscularly injected 30 minutes before and 1, 2, 3, 4, 5 and 7 days after the induction of ischemic reperfusion.
Flap survivability was measured 7 days after the induction of ischemic reperfusion. The flap survival rate was measured through analysis of digital images using the imageJ program.

[5] = tested on: renal ischemic-reperfusion injury mouse model; assay: Renal failure markers (BUN and creatine) in renal ischemic-reperfusion injury mouse model; format: in vivo, C57BL/6 mouse; conditions: blood 24 hours after ischemic reperfusion; 1000 nmol/kg 30 minutes before and 12 hours after IR; compared to PBS control group
Procedure: as §1, §2
The peptide PEP 1 was diluted in PBS to a concentration of 1000 nmol/kg and intraperitoneally (i.p.) injected twice 30 minutes before and 12 hours after the ischemic reperfusion. […]
as §4, with “Renal tissue was taken and prepared into paraffin blocks for immunohistochemical and histological studies.” left out

[6] = tested on: renal ischemic-reperfusion injury mouse model; assay: Infiltration of innate immune cells (F4/80, Gr-1 staining) in renal tissue, renal ischemic-reperfusion injury mouse model; format: in vivo, C57BL/6 mouse; conditions: 24 hours after ischemic reperfusion; 1000 nmol/kg 30 minutes before and 12 hours after IR; compared to PBS control group
Procedure: as §1, §2, §3
Infiltration of innate immune cells was evaluated by immnohistologically staining renal tissue with F4/80 (macrophage maker) and Gr-1 (neutrophil maker) 24 hours after the ischemic reperfusion. […]

Sequence: EARPALLTSRLRFIPK (listed as Homo sapiens) [PEP 1]
- IL-6 level in renal tissue [1]: significantly decreased
- MCP-1 level in renal tissue [1]: significantly decreased
- TNF-α level in renal tissue [1]: no significant difference
- TUNEL-positive cells in renal tissue [2]: remarkably decreased
- renal tissue injury (renal tissue injury scoring, PAS stain) [3]: remarkably decreased
- flap survival rate [4]: 58.88%±11.44%
- blood urea nitrogen (BUN) level [5]: significantly decreased
- creatine level [5]: significantly decreased
- infiltration of macrophages (F4/80) into renal tissue [6]: remarkably decreased
- infiltration of neutrophils (Gr-1) into renal tissue [6]: remarkably decreased
